From patent US20100069316A1, “TREATMENT FOR MULTIPLE MYELOMA” (Ares Trading S.A., priority 2006, published 2010) come the findings set out here.

Molecules are shown by their SMILES. Like-named read-outs stand apart in the source and are kept apart here.

Format in all cases: cell-based, human
For one assay, the system named is XG12 myeloma cell line. The assay is described as follows: Cell proliferation assay (tritiated thymidine incorporation), XG12. The conditions noted are these: for IC50: Homo sapiens; for IC10: XG12, concentration yielding 10% inhibition of proliferation. Here is the method: (§1) Myeloma cells were harvested in the exponential growth phase (at day 3 after culture passage when the cell concentration is around 5×10^5 cells/ml). Cells were washed twice, cultured for 3 hours in RPMI1640 and 10% FCS, washed twice. This makes it possible to remove cell-bound growth factors (in particular recombinant IL-6). Then cells are plated in 96-well flat-bottomed microplates at various concentrations depending on their doubling time: • 5×10^3 cells/well in 100 μl for the cell lines: XG-1, XG-7 • 10^4 cells/well in […] for the cell lines: XG-2, XG-4, XG-6, XG-11, PRMI8226, L363 • 2×10^4 cells/well in 100 μl for the cell lines: XG-3, XG-12, XG-13, XG-14, XG-19, XG-20
(§2) The culture medium used were: • PRMI1640, 10% FCS and 0.5 ng/ml of IL-6 for XG-1, XG-2, XG-3, XG-4, XG-6, XG-7, XG-11, XG-12, XG-13, XG-19, XG-20 cells • X-VIVO20 and 0.5 ng/ml IL-6 for XG-14 cells • PRMI1640 and 10% FCS for RPMI8226 and L363 cells
(§3) The diluted compounds, DMSO or control culture medium were added in 100 μl at the start of the culture. Three culture wells were done for one compound dilution and the experiments were done twice (finally six culture wells for one compound dilution).
(§4) Cells were cultured for 4 days. Eight hours before the end of the culture, 0.5 μCi of tritiated thymidine were added in 50 μl of RPMI1640 and 10% FCS. Cells were then extracted with a cell collector and the thymidine incorporation was determined using a beta cell counter.
(§5) For each experiment, the mean tritiated thymidine incorporations (mean values determined on three culture wells) were plotted against the logarithmic concentrations of the compound. The curves were fitted with exponential regression, which was determined using the concentrations defining the inhibition response (usually 3-4 concentrations).
(§6) The concentrations yielding 50% and 90% inhibition of the proliferation of myeloma cells were determined with these regression curves.
(§7) The concentration yielding 10% (IC10) or 50% (IC50) inhibition of the myeloma cell lines were determined and the data are listed in Table 2.
(§8) Compound A was tested in combination with melphalan or Velcade. Increasing concentration of compound A (0, 0.01, 0.03, 0.12, 0.37, 1.1, 3.1, 10, 30 μM) were applied on 4 myeloma cell lines alone or in combination with Velcade or melphalan at concentration yielding around 10% or 50% inhibition.
(Dividing cells build labelled thymidine or BrdU into new DNA.)

Another assay concerns XG7 myeloma cell line. The assay is described as follows: Cell proliferation assay (tritiated thymidine incorporation), XG7. The conditions noted are these: for IC50: Homo sapiens; for IC10: XG7, concentration yielding 10% inhibition of proliferation. How it is done:
as §1, §2, §3, §4, §5, §6, §7, §8

A further assay has as its system L363 myeloma cell line. The assay is described as follows: Cell proliferation assay (tritiated thymidine incorporation), L363. Conditions: for IC50: Homo sapiens; for IC10: L363, concentration yielding 10% inhibition of proliferation. How it is done: as §1, §2, §3, §4, §5, §6, §7, §8
The next assay relates to XG3 myeloma cell line. The assay is described as follows: Cell proliferation assay (tritiated thymidine incorporation), XG3. The conditions noted are these: for IC50: Homo sapiens; for IC10: XG3, concentration yielding 10% inhibition of proliferation. Here is the method: as §1, §2, §3, §4, §5, §6, §7, §8

A word on the IC50: it is the concentration that inhibits the measured activity by half. By IC10 is commonly meant the concentration at which the effect reaches the 10% level. Take `N[C@@H](Cc1ccc(N(CCCl)CCCl)cc1)C(=O)O` [Melphalan, melphalan]: the IC50 in the assay with XG12 myeloma cell line was determined as 1230 nM; in the assay on XG7 myeloma cell line, 1180 nM; in the assay with L363 myeloma cell line (L-363) it was 457 nM; in the assay with XG3 myeloma cell line, 1680 nM. In addition, the “IC10” value amounted to 318 nM with XG12 myeloma cell line, 409 nM with XG7 myeloma cell line, 110 nM in the assay on L363 myeloma cell line and 490 nM with XG3 myeloma cell line.
Take `CC(C)C[C@H](NC(=O)[C@H](Cc1ccccc1)NC(=O)c1cnccn1)B(O)O` [Velcade, bortezomib]: the IC50 with XG12 myeloma cell line (XG12, proliferation, read-out: IC50) was 3.9 nM; in the assay with XG7 myeloma cell line (XG7, proliferation, read-out: IC50), 3.5 nM; in the assay with L363 myeloma cell line (L-363, L363, proliferation, read-out: IC50), 8.4 nM; with XG3 myeloma cell line (XG3, proliferation, read-out: IC50), 2.2 nM. For the same compound, the “IC10” value with XG12 myeloma cell line is 1.6 nM; in the assay with XG7 myeloma cell line, 1.4 nM; in the assay on L363 myeloma cell line, 4.9 nM; in the assay with XG3 myeloma cell line it was 1.6 nM.
